According to patent US3974140A, “Ureidoacetamido-penicillins” (Bayer Aktiengesellschaft, priority 1970, dated 1976):
Values joined by “and” are separate entries in the source; they are usually repeats but may differ in a detail not shown here. Identical values can stand only once.

How the values were obtained:
Assay in all cases: MIC, liquid medium test tube series dilution test
Klebsiella 63 = format: cell-based; conditions: Klebsiella 63, 24 hours, 37°C
Outline: (§1)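 Liquid-medium tube serial dilution in complete nutrient medium, read after 24 h incubation at 37°C. MIC is the lowest concentration giving a non-turbid tube, expressed in units/ml.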

[1] = test system: Streptoc. faec. ATCC 9790; format: cell-based; conditions: Strep. faec. (Enterococcus) ATCC 9790, 24 hours, 37°C
Outline: as §1

E. coli A 261 = format: cell-based; conditions: E. coli A 261, 24 hours, 37°C
Outline: as §1

E. coli 183/58 = format: cell-based; conditions: E. coli 183/58, 24 hours, 37°C
Outline: as §1

Klebsiella K 10 = format: cell-based; conditions: Klebsiella K 10, 24 hours, 37°C
Outline: as §1

E. coli C 165 = format: cell-based; conditions: E. coli C 165, 24 hours, 37°C
Outline: as §1

E. coli 14 = format: cell-based; conditions: E. coli 14, 24 hours, 37°C
Outline: as §1

Psdm. aerug. Bonn = format: cell-based, Pseudomonas aerug.; conditions: 24 hours, 37°C
Outline: as §1

Psdm. aerug. Walter = format: cell-based, Pseudomonas aerug.; conditions: 24 hours, 37°C
Outline: as §1

Proteus vulg. 3400 = format: cell-based, Proteus vulgaris; conditions: Proteus vulg. 3400, 24 hours, 37°C
Outline: as §1

Proteus vulg. 1017 = format: cell-based, Proteus vulgaris; conditions: Proteus vulg. 1017, 24 hours, 37°C
Outline: as §1

Staph. aureus 1777 E = format: cell-based, Staphylococcus aureus; conditions: 24 hours, 37°C
Outline: as §1

Staph. aureus 133 = format: cell-based, Staphylococcus aureus; conditions: Staph. aureus 133, 24 hours, 37°C
Outline: as §1

| Compound | MIC (Klebsiella 63) | MIC [1] | MIC (E. coli A 261) | MIC (E. coli 183/58) | MIC (Klebsiella K 10) | MIC (E. coli C 165) | MIC (E. coli 14) | MIC (Psdm. aerug. Bonn) | MIC (Psdm. aerug. Walter) | MIC (Proteus vulg. 3400) | MIC (Proteus vulg. 1017) | MIC (Staph. aureus 1777 E) | MIC (Staph. aureus 133) | further results |
| --- | --- | --- | --- | --- | --- | --- | --- | --- | --- | --- | --- | --- | --- | --- |
| CCOC(=O)N(C)C(=O)N[C@@H](C(=O)N[C@@H]1C(=O)N2[C@@H]1SC(C)(C)[C@@H]2C(=O)O)c1ccccc1 [Example 61, Sodium D(-)-α-(3-ethoxycarbonyl-3-methyl-ureido)-benzylpenicillin] | 50 units/ml | 50 units/ml | > 400 units/ml | 6.25 units/ml | 100 units/ml | 6.25 units/ml | 3.12 units/ml | 12.5 units/ml | 25 units/ml | 25 units/ml | 25 units/ml | 200 units/ml | < 0.78 units/ml |  |
| CN(C(=O)N[C@@H](C(=O)N[C@@H]1C(=O)N2[C@@H]1SC(C)(C)[C@@H]2C(=O)O)c1ccccc1)C(=O)C1CCCCC1 [Example 62] | 100 units/ml | 100 units/ml | 400 units/ml | 3.12 units/ml | 100 units/ml | 6.25 units/ml | 1.56 units/ml | 12 units/ml and 12.5 units/ml | 25 units/ml | 6.25 units/ml | 6.25 units/ml | 400 units/ml | < 0.78 units/ml |  |
| CN(C(=O)C=Cc1ccccc1)C(=O)N[C@@H](C(=O)N[C@@H]1C(=O)N2[C@@H]1SC(C)(C)[C@@H]2C(=O)O)c1ccccc1 [Example 63, Sodium D(-)-α-(3-cinnamoyl-3-methyl-ureido)-benzylpenicillin] | 50 units/ml | 50 units/ml | 400 units/ml | < 0.78 units/ml | 50 units/ml | 1.56 units/ml | < 0.78 units/ml | 6.25 units/ml | 12.5 units/ml | 3.12 units/ml | 1.56 units/ml | 200 units/ml | < 0.78 units/ml |  |
| CCCCOC(=O)N(C)C(=O)N[C@@H](C(=O)N[C@@H]1C(=O)N2[C@@H]1SC(C)(C)[C@@H]2C(=O)O)c1ccccc1 [Example 98, Sodium D(-)-α-(3-n-butoxycarbonyl-3-methyl-ureido)-benzylpenicillin] | 400 units/ml | 100 units/ml | > 400 units/ml | 6.25 units/ml | 400 units/ml | 6.25 units/ml | 3.12 units/ml | 12.5 units/ml | 25 units/ml | 25 units/ml | 12.5 units/ml | 200 units/ml | < 0.78 units/ml | MIC (E. coli 183/58; listed as (B) of Example 28): 6.25 units/ml; MIC (E. coli C 165; listed as (B) of Example 28): 6.25 units/ml; MIC (E. coli 14; listed as (B) of Example 28): 3.12 units/ml; MIC (Psdm. aerug. Bonn; listed as (B) of Example 28): 12.5 units/ml; MIC (Psdm. aerug. Walter; listed as (B) of Example 28): 25 units/ml; MIC (Proteus vulg. 3400; listed as (B) of Example 28): 25 units/ml; MIC (Proteus vulg. 1017; listed as (B) of Example 28): 12.5 units/ml; MIC (Staph. aureus 133; listed as (B) of Example 28): < 0.78 units/ml |
| CNC(=O)N(C)C(=O)N[C@@H](C(=O)N[C@@H]1C(=O)N2[C@@H]1SC(C)(C)[C@@H]2C(=O)O)c1ccccc1 [Example 110, Sodium D(-)-α-(3-methylaminocarbonyl-3-methyl-ureido)-benzylpenicillin] | 4-20 units/ml | 4-20 units/ml | 100-500 units/ml | 4-20 units/ml | 4-20 units/ml | 4-20 units/ml | 0.8-4 units/ml | 20-100 units/ml | 20-100 units/ml | 4-20 units/ml | 4-20 units/ml | 20-100 units/ml | 0.8 units/ml |  |
| CN(C(=O)N[C@@H](C(=O)N[C@@H]1C(=O)N2[C@@H]1SC(C)(C)[C@@H]2C(=O)O)c1ccccc1)C(=O)c1cc(Cl)ccc1Cl [Example 111, Sodium D(-)-α-(3-[2,5-dichlorobenzoyl]-3-methyl-ureido)-benzylpenicillin] | 4-20 units/ml | 4-20 units/ml | 20-100 units/ml | < 0.8 units/ml | 4-20 units/ml | 0.8-4 units/ml | < 0.8 units/ml | 4-20 units/ml | 4-20 units/ml | 0.8-4 units/ml | 0.8-4 units/ml | 4-20 units/ml | 0.8 units/ml |  |
| CN(C(=O)N[C@@H](C(=O)N[C@@H]1C(=O)N2[C@@H]1SC(C)(C)[C@@H]2C(=O)O)c1ccccc1)C(=O)c1ccc(Cl)cc1 [Example 112, Sodium D(-)-α-(3-p-chlorebenzoyl-3-methyl-ureido)-benzylpenicillin] | 4-20 units/ml | 4-20 units/ml | 20-100 units/ml | < 0.8 units/ml | 4-20 units/ml | 0.8-4 units/ml | < 0.8 units/ml | 4- 20 units/ml | 4-20 units/ml | 0.8-4 units/ml | 0.8-4 units/ml | 20-100 units/ml | 0.8 units/ml |  |
| CN(C(=O)N[C@@H](C(=O)N[C@@H]1C(=O)N2[C@@H]1SC(C)(C)[C@@H]2C(=O)O)c1ccccc1)C(=O)c1cccc(Cl)c1 [Example 117, Sodium D(-)-α-(3-m-chlorobenzoyl-3-methyl-ureido)-benzylpenicillin] | 12.5 units/ml | 50 units/ml | 50 units/ml | 1.56 units/ml | 6.25 units/ml | 1.56 units/ml | < 0.78 units/ml | 12.5 units/ml | 12.5 units/ml | 3.12 units/ml | 3.12 units/ml | 12.5 units/ml | 0.8 units/ml |  |
| CC(=O)N(C)C(=O)NC(C(=O)N[C@@H]1C(=O)N2[C@@H]1SC(C)(C)[C@@H]2C(=O)O)c1ccc(C)cc1 (stereo partly drawn) [Example 118, Sodium α-(3-acetyl-3-methyl-ureido)-4-methylbenzylpenicillin] | 200 units/ml | 50 units/ml | > 400 units/ml | 200 units/ml | 100 units/ml | 50 units/ml | 12.5 units/ml | 200 units/ml | 200 units/ml | 200 units/ml | 100 units/ml | 100 units/ml | 1.6 units/ml |  |
| Cc1ccc(C(NC(=O)N(C)C(=O)N(C)C)C(=O)N[C@@H]2C(=O)N3[C@@H]2SC(C)(C)[C@@H]3C(=O)O)cc1 (stereo partly drawn) [Example 119, Sodium R,S-α-(3-dimethylaminocarbonyl-3-methyl-ureido)-4-methylbenzylpenicillin] | > 400 units/ml | 100 units/ml | > 400 units/ml | 400 units/ml | 400 units/ml | 200 units/ml | 25 units/ml | > 400 units/ml | > 400 units/ml | > 400 units/ml | > 400 units/ml | 200 units/ml | 1.6 units/ml |  |
| CC(=O)N(C)C(=O)NC(C(=O)N[C@@H]1C(=O)N2[C@@H]1SC(C)(C)[C@@H]2C(=O)O)c1ccc(Cl)cc1 (stereo partly drawn) [Example 121, Sodium R,S-α-(3-acetyl-3-methyl-ureido)-4-chlorobenzylpenicillin] | 100 units/ml | 100 units/ml | > 400 units/ml | 100 units/ml | 25 units/ml | 50 units/ml | 6 units/ml | 100 units/ml | 100 units/ml | 200 units/ml | 100 units/ml | 100 units/ml | < 0.8 units/ml |  |
| CC(=O)N(C)C(=O)NC(C(=O)N[C@@H]1C(=O)N2[C@@H]1SC(C)(C)[C@@H]2C(=O)O)c1cccs1 (stereo partly drawn) [Example 122, Sodium D,L-α-(3-acetyl-3-methyl-ureido)-α-thienyl(2)-methylpenicillin] | 100 units/ml | 100 units/ml | > 400 units/ml | 200 units/ml | 50 units/ml | 50 units/ml | 12.5 units/ml | 200 units/ml | 400 units/ml | 400 units/ml | 100 units/ml | 400 units/ml | 1.6 units/ml |  |
